Assay results published in patent US10227290B2, “Glycosphingolipids for use in modulating immune responses” (The Regents of the University of California, priority 2012, dated 2019).

Tested on: NKT cell hybridomas
Test: IL-2 production by NKT cell hybridomas cultured with BMDCs (ELISA)
Format: cell-based, mouse
Protocol: FIGS. 4A-4C illustrate that α-GalCerBf binds CD1d and activates murine NKT cells in vitro. FIG. 4A: NKT cell hybridomas (see Example 4) were stained with anti-CD3 antibodies, and empty mCD1d tetramers or CD1d tetramers were loaded with α-GalCerBf or KRN7000. Flow cytometry plots representative of three independent experiments are shown. FIG. 4B: Hybridomas were cultured with BMDCs (bone marrow-derived dendritic cells) pre-pulsed with LPS or LPS+α-GalCerBf in the presence of control Ig or anti-CD1d blocking antibodies. IL-2 secretion was measured in supernatants 16 hr later. Data are representative of three independent experiments. FIG. 4C: Liver mononuclear cells were cultured with splenocytes plus increasing amounts of α-GalCerBf in the presence or absence of anti-CD1d blocking antibodies. IFN-γ secretion was measured in supernatants on day 5. Data are representative of three independent experiments.
BMDCs and NKT hybridomas were cultured at a 3:1 hybridoma:BMDC ratio and the indicated doses of KRN7000 or α-GalCerBf in the presence of 1 μg/ml LPS. Supernatants were harvested after 24 hrs, and IL-2 production was measured by ELISA. […]
NKT hybridomas were stimulated in dose titration experiments. […] Supernatants were harvested after 24 hr, and IL-2 production was measured by ELISA. […] Supernatants were harvested after 16-18 hr and IL-2 production was measured by ELISA.

SMILES: CCCCCCCCCCCCCCCCCCCCCCCCCC(=O)N[C@@H](CO[C@H]1O[C@H](CO)[C@H](O)[C@H](O)[C@H]1O)[C@H](O)[C@H](O)CCCCCCCCCCCCCC [KRN7000]
- Sensitivity of hybridoma to KRN7000 relative to α-GalCerBf (IL-2) (hybridoma 1.2): 30 fold
- Sensitivity of hybridoma to KRN7000 relative to α-GalCerBf (IL-2) (hybridoma 1.4): 80 fold
